According to ChEMBL document CHEMBL1141743, “Malyngamides M and N from the Hawaiian Red Alga Gracilaria coronopifolia” (J Nat Prod, 1998):

assay: Cytotoxicity against mouse NB cells; format: functional, cell-based

Compound | IC50 [µM]
CCCCCCC[C@@H](C/C=C/CCC(=O)N(C)C/C(=C/Cl)[C@]12O[C@H]1CC=C(C)C2=O)OC [MALYNGAMIDE N] | 12
CCCCCCC[C@@H](C/C=C/CCC(=O)N(C)C/C(=C/Cl)c1cccc(C)c1O)OC [MALYNGAMIDE M] | > 20
CCCCCCC[C@@H](C/C=C/CCC(=O)N(C)C/C(=C/Cl)[C@]12O[C@H]1C[C@@H](OC(C)=O)[C@@H](C)C2=O)OC | 12
